Measured values published in ChEMBL document CHEMBL5385867, “2-Phenoxy-3, 4'-bipyridine derivatives inhibit AURKB-dependent mitotic processes by disrupting its localization” (Eur J Med Chem, 2023).
Activity calls are given as the source filed them. No cut-off for these calls is given here.

Legend:
[1] = Induction of mitotic arrest in human RPE-MYC cells transfected with BCL2 assessed as mitotic index at 2 ug/ml measured after 24 hrs by DAPI staining based bright field microscopic analysis (reference value: 3.5%); type: functional; conditions: dose 2 µg/ml
RPE [2] = experiment: Inhibition of actin polymerization in human RPE-MYC cells transfected with BCL2 assessed as accumulation of polyploid cells with multilobular nuclei at 2 ug/ml measured after 48 hrs by immunofluorescence staining based analysis; type: cell-based; conditions: dose 2.0 µg/ml
RPE [3] = experiment: Inhibition of actin polymerization in human RPE-MYC cells transfected with BCL2 assessed as chromosome misalignment in metaphase at 2 ug/ml measured after 24 hrs by immunofluorescence staining based analysis; type: cell-based; conditions: dose 2.0 µg/ml
RPE [4] = experiment: Inhibition of actin polymerization in human RPE-MYC cells transfected with BCL2 assessed as lagging chromosomes in anaphase at 2 ug/ml measured after 24 hrs by immunofluorescence staining based analysis; type: cell-based; conditions: dose 2.0 µg/ml
[5] = Induction of mitotic arrest in human RPE-MYC cells transfected with BCL2 assessed as mitotic index at 50 nM measured after 24 hrs by DAPI staining based bright field microscopic analysis (reference value: 3.5%); type: functional
Tubulin (Homo sapiens) = Tubulin (Homo sapiens) (UniProt P68371+Q9H4B7+P0DPH7+P68366+Q13509+Q71U36+P04350+Q3ZCM7+P07437+P68363+Q9BQE3+Q6PEY2+Q13885+Q9BVA1+Q9BUF5); experiment: Stabilization of microtubule in human RPE-MYC cells transfected with BCL2 assessed as misaligned chromosomes in metaphase cells at 50 nM measured after 24 hrs by immunofluorescence staining based analysis; type: cell-based

| Activity (Tubulin (Homo sapiens)) | SMILES | Activity [1] [%] | inhibition (RPE [2]) | inhibition (RPE [3]) | inhibition (RPE [4]) | Activity [5] [%] |
| --- | --- | --- | --- | --- | --- | --- |
| – | C=C1[C@@H](C)[C@H]2[C@H](Cc3ccccc3)NC(=O)[C@]23OC(=O)/C=C/[C@H](O)CCC[C@@H](C)C/C=C/[C@H]3[C@@H]1O [CYTOCHALASIN B] | 2.7 | Active | inactive | inactive | – |
| inactive | CC(=O)O[C@H]1C(=O)[C@@]2(C)[C@H]([C@H](OC(=O)c3ccccc3)[C@]3(O)C[C@H](OC(=O)[C@H](O)[C@@H](NC(=O)c4ccccc4)c4ccccc4)C(C)=C1C3(C)C)[C@]1(OC(C)=O)CO[C@@H]1C[C@@H]2O [PACLITAXEL] | – | – | – | – | 97.3 |
